According to patent US12043597B2, “Crystalline polymorphs of Rivoceranib and Rivoceranib mesylate” (ASSIA CHEMICAL INDUSTRIES LTD., priority 2018, dated 2024):

Test: Solid-state (polymorphic) stability of the crystalline form under humidity, temperature and mass pressure stress
Assay type: physicochemical
Description: As used herein, the term “stable” in relation to crystalline Rivoceranib and Rivoceranib mesylate refers to less than 20%, less than 10%, less than 5%, less than 2%, less than 1%, or less than 0.5% conversion of crystalline Rivoceranib or Rivoceranib mesylate to any other solid state form of Rivoceranib or Rivoceranib mesylate, respectively.
As discussed above, depending on which other solid state it is compared with, Form RT2 of Rivoceranib according to the present disclosure may have advantageous properties as described above. Particularly, crystalline Form RT2 of Rivoceranib mesylate of the present disclosure is stable, for example upon exposure to high humidity or high temperature or high mass pressure conditions, such as 60° C./100% RH for up to 7 days or 80% RH at room temperature for 2 days, or under 100° C. for 60 minutes or under mass pressure of 2 ton for 1 minute.

CS(=O)(=O)O.N#CC1(c2ccc(NC(=O)c3cccnc3NCc3ccncc3)cc2)CCCC1 [Form RT2, N-[4-(1-Cyanocyclopentyl)phenyl]-2-(pyridin-4-ylmethylamino)pyridine-3-carboxamide methanesulfonate]
stable: stability upon exposure to high humidity and temperature (60° C./100% RH for up to 7 days) | stability upon exposure to high humidity (80% RH at room temperature for 2 days) | stability upon exposure to high temperature (100° C. for 60 minutes) | stability under high mass pressure (mass pressure of 2 ton for 1 minute)
